Literature values, collected in patent publication US20050106735A1, “COMPOSITON FOR NON-TOXIC, NON-HAZARDOUS, AND ENVIRONMENTALLY FRIENDLY HUMIDITY-INDICATING AGENT AND ITS APPLICATION” (GP&E AMERICA, LLC, priority 2004, published 2005).

How the values were obtained:
[1] = tested on: Rat; details: oral
[2] = tested on: aquatic organisms

Structure (SMILES): [Cl][Cu][Cl] [Copper Chloride]
- Toxicity (ORL-RAT LD50) [1]: 584 mg/kg

Structure (SMILES): [Cl-].[Cl-].[Zn+2] [Zinc Chloride]
- Toxicity to aquatic organisms [2]: very toxic to aquatic organisms
- Toxicity (ORL-RAT LD50) [1]: 350 mg/kg

Structure (SMILES): [Cl-].[Cl-].[Mg+2] [Magnesium Chloride]
- Toxicity (ORL-RAT LD50) [1]: 8100 mg/kg

Structure (SMILES): [Cl-].[Na+] [Sodium Chloride]
- Toxicity (ORL-RAT LD50) [1]: 3000 mg/kg

Structure (SMILES): [Cl][Co][Cl] [Cobalt Chloride]
- Concentration at which the substance may cause cancer by inhalation (Commission Directive 2004/73/EC): ≥ 0.01%
- European Union carcinogen classification (Council Directive 67/548/EEC): category 2 carcinogen
- Toxicity (ORL-RAT LD50) [1]: 80 mg/kg
